{"source": "patent US6709849B2", "about": "“Dietary supplements for regulating male hormone” (priority 2002, dated 2004)", "key": {"[1]": {"tested_on": "castrated male NIH-grade mice", "assay": "Growth of seminal vesicle and glandulae preputiales in castrated mice (weight)", "type": "in vivo, mouse", "details": "7 days, yeast 1.5 ml/dose twice daily intragastric, testosterone propionate 20 mg/kg i.m. every other day", "procedure": "(§1) The activated yeast compositions used in the following examples were prepared as described above, using Saccharomyces cerevisiae Hansen AS2.504, cultured in the presence of an alternating electric field having the electric field frequency and field strength exemplified in the parentheses following the recommended ranges listed in Section IV, supra. Control (i.e., untreated) yeast compositions were those prepared in the same manner as described in Section VI, supra, except that the yeast cells were cultured in the absence of EMFs. Unless otherwise indicated, the yeast compositions and the corresponding controls were administered to the animals by intragastric feeding.\nForty male NIH-grade castrated mice (about 25-30 g each) were randomly divided into four equal groups. Three days after castration, the activated yeast composition was administered to each of the Group A mice twice daily at 1.5 ml/dose for seven consecutive days. The control yeast composition was administered to each of the Group B mice at the same daily dosage for seven consecutive days. Testosterone propionate was injected intramuscularly to each of the Group C mice in the buttocks at 20 mg/kg every other day, i.e., on days 1, 3, 5, and 7, for a total of 7 days. Saline was orally administered to each of the Group D […] twice daily at 1.5 ml/dose for seven consecutive days. […]"}, "[2]": {"tested_on": "castrated male Wistar rats", "assay": "Growth of prostate, seminal vesicle and glandulae preputiales in castrated Wistar rats (wet weight)", "type": "in vivo, rat", "details": "daily for 14 days, sacrificed 24 hours after last administration, yeast 3 ml daily intragastric, testosterone propionate 25 mg/kg daily i.m.", "procedure": "as §1\nTo test the ability of the EMF-treated AS2.504 cells to regulate male hormone, twenty-four healthy male Wistar rats (about 50 g body weight, 20 days old) were selected. Under ether anesthesia, both testes of each rat were removed under sterile conditions. The castrated rats were then randomly divided into four equal groups. The activated yeast composition was administered to Group A rats at a dose of 3 ml daily continuously for 14 consecutive days. […]\nEach rat was sacrificed 24 hours after the last administration of the composition of interest. […] The wet weight of the prostate and seminal vesicle was recorded (Table 2). […] The wet weight of the removed glandulae preputiales was also recorded (Table 2)."}}}
{"smiles": "CCC(=O)O[C@H]1CC[C@H]2[C@@H]3CCC4=CC(=O)CC[C@]4(C)[C@H]3CC[C@]12C", "note": "[testosterone propionate, Testosterone propionate]", "values": [{"measurement": "Glandulae Preputiales (mg/100 g body weight)", "setting": "[1]", "value": "323.7 ± 50.6", "unit": "mg/100 g body weight"}, {"measurement": "Seminal Vesicle (mg/100 g body weight)", "setting": "[1]", "value": "268.2 ± 56.2", "unit": "mg/100 g body weight"}, {"measurement": "Glandulae Preputiales (wet weight)", "setting": "[2]", "value": "98.6 ± 15.8"}, {"measurement": "Prostate and Seminal Vesicle (wet weight)", "setting": "[2]", "value": "91.5 ± 12.8"}]}
